According to publication PMC5969224, “Lysine‐241 Has a Role in Coupling 2OG Turnover with Substrate Oxidation During KDM4‐Catalysed Histone Demethylation” (Chembiochem, 2018):
Positions count from the first letter of the chain named. Entries after “also recorded” stand apart in the source; their conditions may differ. Each block holds one compound with its values, some of them ahead of it. Square brackets hold non-standard residues; d marks the D form. Ends that are not written are not given here. Lys(Me3) = C[N+](C)(C)CCCC[C@H](N)C(=O)O

Columns and labels:
K241A KDM4A [1] = molecular target: T1, K241A KDM4A (Homo sapiens, UniProt O75164, K241A); assay: 1H NMR substrate-uncoupled turnover of 2OG to succinate, K241A KDM4A; assay type: biochemical
T1 construct: two recombinant variants of KDM4A (residues 1–359) in Escherichia coli BL21(DE3) cells; His6 (N); made in house; host or cells: Escherichia coli BL21(DE3)
T1 sequence (O75164 1-359 K241A): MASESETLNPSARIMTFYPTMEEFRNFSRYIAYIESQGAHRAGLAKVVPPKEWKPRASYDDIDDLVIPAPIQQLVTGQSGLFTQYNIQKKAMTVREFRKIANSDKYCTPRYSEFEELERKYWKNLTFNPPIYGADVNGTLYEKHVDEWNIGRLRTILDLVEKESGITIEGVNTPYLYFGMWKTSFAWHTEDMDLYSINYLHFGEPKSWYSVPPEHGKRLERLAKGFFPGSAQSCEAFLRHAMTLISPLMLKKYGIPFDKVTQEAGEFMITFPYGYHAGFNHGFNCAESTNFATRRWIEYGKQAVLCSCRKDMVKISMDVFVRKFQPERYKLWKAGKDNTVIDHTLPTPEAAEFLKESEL
Protocol: (§1) Samples containing either WT or K241A (20.5 μM), an excess of 2OG (2 mM), ascorbate (1 mM), and ferrous iron (100 μM) in ammonium formate buffer (50 mM, pH 7.5) were subjected to ^1H NMR analysis at 1.5 min intervals over a 30‐min reaction. […] Experiments were then conducted in the presence of a histone H3 eight‐residue fragment peptide containing N ^ϵ‐trimethyllysine at position 9 (H3K9me3, sequence: ARKme3STGGK).
(§2) 1H NMR activity and inhibition assays: 20.5 µM KDM4A WT or KDM4A K241A was
(§3) mixed with 2 mM 2OG, 1 mM sodium L-ascorbate, and 100 µM ferrous iron (source
(§4) (NH4)2FeSO4.6H2O), in 50 mM ammonium formate buffer pH 7.5 10 % v/v D2O in an Ep-
(§5) pendorf tube, before being immediately transferred to an NMR tube and subjected to 1H NMR
(§6) analysis (700 MHz). For samples containing peptide substrate (sequence: ARKme3STGGK),
(§7) the peptide concentration was 300 µM. For inhibition assays, samples contained 100 µM in-
(§8) hibitor (JIB-04 or NOG) and the spectra were acquired after 35 min. Note: residual protein
(§9) buffer was also present. NMR analyses were carried out on a Bruker AVIII 700 spectrometer
(§10) equipped with an inverse TCI 1H/13C/15N cryoprobe and running TOPSPIN 3.2 software. The
(§11) deuterium signal was used as an internal lock signal and 1H chemical shifts are reported in
(§12) ppm relative to the solvent HDO resonance (δH 4.7 ppm).

WT KDM4A [2] = molecular target: T2, WT KDM4A (Homo sapiens, UniProt O75164); conditions: ref 12b; cited from earlier work
T2 sequence (O75164 1-359): T1 sequence (O75164 1-359 K241A) with A241K
Protocol: Studies were then carried out to evaluate the ability of the two KDM4A proteins to catalyse the demethylation of a histone peptide substrate.

WT KDM4A [3] = molecular target: T2, WT KDM4A; assay: 1H NMR substrate-uncoupled turnover of 2OG to succinate, WT KDM4A; assay type: biochemical; set-up: two recombinant variants of KDM4A (residues 1–359) in Escherichia coli BL21(DE3) cells; His6 (N); made in house; host or cells: Escherichia coli BL21(DE3); conditions: WT 20.5 μM, 2OG 2 mM, ascorbate 1 mM, Fe(II) 100 μM, 50 mM ammonium formate pH 7.5, no peptide; 1H NMR 700 MHz, 1.5 min intervals over 30 min
Protocol: Samples containing either WT or K241A (20.5 μM), an excess of 2OG (2 mM), ascorbate (1 mM), and ferrous iron (100 μM) in ammonium formate buffer (50 mM, pH 7.5) were subjected to ^1H NMR analysis at 1.5 min intervals over a 30‐min reaction.
as §2, §3, §4, §5, §9, §10, §11
ppm relative to the solvent HDO resonance (δH 4.7 ppm). The solvent signal was reduced by

K241A KDM4A [4] = molecular target: T1, K241A KDM4A; assay: 1H NMR inhibition assay of uncoupled 2OG turnover, K241A KDM4A; assay type: biochemical; conditions: K241A KDM4A 20.5 μM; inhibitor 100 μM; 2OG 2 mM; spectra after 35 min; pH 7.5
Protocol: as §1, §2, §3, §4, §5, §6, §7, §8, §9, §10, §11, §12

K241A KDM4A [5] = molecular target: T1, K241A KDM4A; assay: 1H CPMG NMR binding assay, K241A KDM4A; conditions: for binding to K241A versus WT KDM4A: CPMG NMR, K241A compared with WT
Protocol: as §1
(§13) NMR analyses were carried out on a Bruker AVIII 700 spectrometer
as §10, §11, §12
(§14) 1H CPMG NMR binding assays: Typical experimental parameters for Carr-Purcell-Mei-
(§15) boom-Gill (CPMG) NMR spectroscopy were as follows: total echo time, 40 ms; relaxation
(§16) delay, 2 s; and number of transients, 264. The PROJECT-CPMG sequence was applied
(§17) (90°x−[τ−180°y−τ−90°y−τ−180°y−τ]n−acq).[4] Water suppression was achieved by presatura-
(§18) tion. Protein (KDM4A WT or KDM4A K241A) was titrated into an assay mixture of 40 µM

K241A KDM4A [6] = molecular target: T1, K241A KDM4A; conditions: mixed-mode inhibition of K241A; cited from earlier work
Text: The overall MS, NMR spectroscopy and fluorescence polarisation studies imply that K241 has a role in KDM4A catalysis. […] Succinate formation by the K241A variant is stimulated by a histone fragment peptide, and a fluorescently labelled histone peptide bind ...

WT KDM4A [7] = molecular target: T2, WT KDM4A; assay: 1H NMR inhibition assay of uncoupled 2OG turnover, WT KDM4A; assay type: biochemical; set-up: two recombinant variants of KDM4A (residues 1–359) in Escherichia coli BL21(DE3) cells; His6 (N); made in house; host or cells: Escherichia coli BL21(DE3); conditions: WT KDM4A 20.5 μM; inhibitor 100 μM; 2OG 2 mM; spectra after 35 min; pH 7.5
Protocol: as §1, §2, §3, §4, §5, §6, §7, §8, §9, §10, §11, §12

WT KDM4A [8] = molecular target: T2, WT KDM4A; assay: 1H CPMG NMR binding assay, WT KDM4A; set-up: two recombinant variants of KDM4A (residues 1–359) in Escherichia coli BL21(DE3) cells; His6 (N); made in house; host or cells: Escherichia coli BL21(DE3); conditions: protein titrated into 40 µM JIB-04, 100 µM Fe(II), 50 mM ammonium formate pH 7.5, 10 % D2O, 600 MHz CPMG, quadratic fit, read-out: K D (JIB-04), provisional
Protocol: as §1, §13, §10, §11, §12, §14, §15, §16, §17, §18

K241A KDM4A [9] = molecular target: T1, K241A KDM4A; assay: 1H NMR succinate formation in presence of H3 eight-residue peptide, K241A KDM4A; assay type: biochemical; conditions: K241A KDM4A 20.5 μM; peptide 300 µM; 2OG 2 mM; pH 7.5
Protocol: as §1, §2, §3, §4, §5, §6, §7, §8, §9, §10, §11, §12

WT KDM4A [10] = molecular target: T2, WT KDM4A; assay: 1H NMR succinate formation in presence of H3 eight-residue peptide, WT KDM4A; assay type: biochemical; set-up: two recombinant variants of KDM4A (residues 1–359) in Escherichia coli BL21(DE3) cells; His6 (N); made in house; host or cells: Escherichia coli BL21(DE3); conditions: peptide 300 µM
Protocol: as §1, §2, §3, §4, §5, §6, §7, §8, §9, §10, §11, §12

K241A KDM4A [11] = molecular target: T1, K241A KDM4A; assay: MALDI-TOF MS demethylation assay, K241A KDM4A; assay type: biochemical; conditions: K241A KDM4A 1 μM, peptide 100 μM, 2OG 100 μM, ascorbate 100 μM, Fe(II) 10 μM, 50 mM HEPES pH 7.5, 40 min, 37 °C
Protocol: Initially, we produced two recombinant variants of KDM4A (residues 1–359) in Escherichia coli BL21(DE3) cells; a truncated wild‐type sequence (KDM4A WT), or a variant with an alanine in place of Lys241 (K241A KDM4A). Studies were then carried out to evaluate the ability of the two KDM4A proteins to catalyse the demethylation of a histone peptide substrate.
MALDI-TOF MS activity assays: 1 µM WT KDM4A or KDM4A K241A was incubated
with 100 µM disodium 2-oxoglutarate (2OG), 100 µM sodium L-ascorbate, 10 µM ferrous iron
(source (NH4)2FeSO4.6H2O) and 100 µM of 15-residue H3 fragment peptide containing the
requisite trimethyllysine mark (Table S1) in 50 mM HEPES buffer pH 7.5 for 40 min at 37 °C.
Assays were quenched with an equal vol-
ume of methanol, and the extent of the reaction determined using MALDI-TOF mass spec-
trometry (MS). Data were analysed using MASSLYNX 4.0 (Waters).

Compound: Clc1ccc(N/N=C(\c2ccccc2)c2ccccn2)nc1 [JIB‐04]
inhibition of uncoupled 2OG turnover (K241A KDM4A [4]): inhibition was more pronounced
binding to K241A versus WT KDM4A (K241A KDM4A [5]): preferential binding of JIB‐04 to the K241A variant over the WT enzyme; also recorded: binding to K241A appears stronger
binding to K241A versus WT KDM4A (K241A KDM4A [5]; listed as JIB-04): Binding appears stronger to the K241 variant than KDM4A WT
Kd (K241A KDM4A [5]; K241A KDM4A, protein titrated into 40 µM JIB-04, 100 µM Fe(II), 50 mM ammonium formate pH 7.5, 10 % D2O, 600 MHz CPMG, quadratic fit, read-out: K D (JIB-04), provisional): 7 ± 2 µM
mode of inhibition (K241A KDM4A [6]): mixed‐mode inhibition
inhibition of uncoupled 2OG turnover (WT KDM4A [7]): inhibition was more pronounced
Kd (WT KDM4A [8]): 22 ± 5 µM

Compound: AR[Lys(Me3)]STGGK [histone H3 eight‐residue fragment peptide containing N ϵ‐trimethyllysine at position 9 (also called H3K9me3)]
effect of peptide on succinate formation rate (K241A KDM4A [9]): markedly increased
effect of peptide on succinate formation rate (WT KDM4A [10]; WT KDM4A 20.5 μM, 2OG 2 mM, pH 7.5): markedly increased
stimulation of succinate formation, WT versus K241A (WT KDM4A [10]; WT compared with K241A): Stimulation of succinate formation was greater for WT than for K241A KDM4A; also recorded: Succinate formation is stimulated by H3K9me3 peptide, but more readily with WT KDM4A

Compound: TPVKKKAR[Lys(Me3)]SAGAAK [H1.4K26 peptide]
demethylation of histone peptide (K241A KDM4A [11]): low‐level demethylation

Continued, in another order:

initial succinate formation rate (K241A KDM4A [1]; K241A 20.5 μM, 2OG 2 mM, ascorbate 1 mM, Fe(II) 100 μM, 50 mM ammonium formate pH 7.5, no peptide, 1H NMR 700 MHz, 1.5 min intervals over 30 min): 1.55 µM/min
succinate formation rates, WT versus K241A (K241A KDM4A [1]; in the absence of peptide, WT and K241A KDM4A compared): near identical
initial succinate formation rate (WT KDM4A [3]): 1.35 µM/min
Compound: O=C(O)CCC(=O)C(=O)O [2OG, 2‐oxoglutarate]
K M (2OG) (WT KDM4A [2]): 26 ± 7 µM

inhibition of uncoupled 2OG turnover (K241A KDM4A [4]): inhibited
inhibition of uncoupled 2OG turnover (WT KDM4A [7]): inhibited
Compound: O=C(O)CNC(=O)C(=O)O [N‐oxalylglycine]
